Test results as given in patent US20050106258A1, “Pharmacology and manufacturing method of Bombyx moriL related bioproduct” (priority 2003, published 2005).
Structures can show the parent of a compound that is named as a salt.

Tests used:
[1] = tested on: 5′ Nucleotide Phosphodiesterase isoenzyme (isoenzyme V) in corpus cavernosum tissue; assay: 5′ Nucleotide Phosphodiesterase isoenzyme bands in rat corpus cavernosum tissue after oral dosing (polyacrylamide gel electrophoresis, laser scanning); type: in vivo, rats; settings: P < 0.05 vs blank comparison (0.495 ± 0.328)
Protocol: Take 50 healthy male rats with body weight of 230±10.4 g, divide them into five groups at random, with 10 rats each group.
(1) The product mainly consisting of bombyx moriL test drug group: 200mg/kg and 400mg/kg two dose groups
(2) The positive comparison drug viagra group: 6 mg/kg and 12 mg/kg two dose groups
(3) The blank comparison group: normal saline 0.4 ml/per animal
Preparation of drug: After product mainly consisting of bombyx moriL and viagra are dissolved with quanitative normal saline, then use them.
Drug feeding way: Feed medicine to all groups of animal once.
Take corpus cavernosum 10 mg, put into the tissue lapping homogenate container, add 0.05M PH7.4 phosphoric acid buffering agent liquid of 0.2 ml homogenate into the ice bath, and lastly add to 10 ml to prepare homogenate liquid with concentration of 1 mg/n ml. Centrifuge by 20 min. at temperature 4° C., 3000 r/min, then take the supernatant liquid for use.
(1) Take 5′ Nucleotide Phosphodiesterase in the amount enough to dissolve phosphoric acid dieter bond by water, under the effecting of the bottom substance of 5′-[5-iodine indoxyl-(3)] thymidine acid ammonium salt, get iodine sub-indoxyl, it can be oxidized in air and generating violet 5.5′,by using -diuodoindigo principle to examine enzyme activity. […]

cGMP [2] = assay: cGMP content in rat plasma (125I-cGMP RIA); type: in vivo, rats; settings: 1.5 hours after administration, P < 0.001 vs control (2.59 ± 0.48)
Protocol: (§1) According to the aim of the experiment, IRA was performed to estimate cGMP content in plasma and cavernous boby of 50 male rats which were administrated by 2 dosages of […] product mainly consisting of bombyx moriL in our ladoratory. Change caused by […] product mainly consisting of bombyx moriL at 1.5 hours after administration was wholly observed. I. Rats: 50 healthy rats were randomly divided into 5 groups, every group is 10 rats 1. Product Mainly Consisting of Bombyx moriL Group: there were two dosage group 200 mg/kg, 400 mg/kg. 2. Viagra Group: two group, 6 mg/kg, 12 mg/kg. 3. Control Group: NS, 0.4 ML/rat. Medicine Dispensing: Viagra and Product Mainly Consisting of Bombyx moriL was dissolved by certain mount of NS. Administration Method: All Group was e.g. for One Time. Anticoagulant 50 u l EDTA was added into blood test tube.lml blood was taken in rat's veniplex orbita posterior. Test tubes was stood in ice-water mixture and were centrifugated 200 rpm for 10 minutes. […] Our laboratory used 125I-cGMP-RIA kit by Isotope Laboratory, detecting Method was double antiboby radioimmune method. The experiment sensitivity is 0.008 pmol/ml, most combination rate of detection is 82.7%,non […] combination rate is 5.0%.

cGMP [3] = assay: cGMP content in rat cavernous body (125I-cGMP RIA); type: in vivo, rats; settings: 1.5 hours after administration
Protocol: as §1, with “Time.” for “Time. Anticoagulant 50 u l EDTA was added into blood test tube.lml blood was taken in rat's veniplex orbita posterior. Test tubes was stood in ice-water mixture and were centrifugated 200 rpm for 10 minutes.”

nitric oxide (NO) = assay: Nitric oxide contents in the corpora cavernosa of penis in male rats (nitrate reductase method); type: in vivo
Description: It has been approved in literatures that nitric oxide (NO) is formed in the endothelial cells in blood vessels and NO plays as an important signal transmitter in many physical activities of the human body. Nitric Oxide exists in many organs and tissues such as brain, blood vessels, liver, lung, pancreas, immune and reproductive systems. On the basis of No on wide-ranging regulative activities in the human physiological process, the Nitric Oxide contents, in the Sera and the Corpora Cavernosa of Penis in 50 normal male rats, were measured by nitrate reductase method for two dosages of product mainly consisting of bombyx moriL and Sildenafil Citrate(Viagra).On a half and one hour after the drug administrations, the variations of NO content were compared with the two drugs treated animals as a whole situation. The results are: (1) In the rat serum of the tested drug groups, there are distinct NO content differences with statistical […] compared the No contents of the low dosage groups of the two drugs with the control group's, and there are very distinct NO content differences with statistical significance (p<0.001) in the high dosage groups of the two drugs. […]

normal males [4] = assay: Arterial blood flow rate of corpus cavernosum penis of normal males (Doppler color ultrasound); type: in vivo; settings: for MAX blood flow rate, change 1 h after administration, X ± SD: P < 0.001; for increasement of MAX (cavernous arterial maximal blood flow rate): 1 hour after administration vs before
Description: AIM: The physiological mechanism of penile erection expresses that NO is excreted in the cavernosum during sexual extraction, whose direct function is to activate GC, which catalyzes GPT to cGMP, so the smooth muscle of cavernosum is relax, and the inflowed blood volume is increased, then penis is erected. In this experiment, Doppler color-ultrasound instrument was used to observe the influence of product mainly consisting of bombyx moriL and viagra on the arterial blood flow rate of corpus cavernosum penis of normal males, to estimate the alternation of inflowed blood volume of cavernosum.
Tested Medicie: No.981005, light-blue capsule, 200 mg/capsule.
Sildenafilcitrate, viagra: light-blue rhombic table, 100 mg/tablet. The tablet was triturated to fine powder, and amylum was added. After adequate mixture, the powder was filled into 200 mg capsule. (The same specification as product mainly consisting of bombyx moriL).There was 50 mg sildenafilcitrate in every 8 capsules.
(§2) Subjects: 46 normal males, age 23-29, provided.
(§3) Methods: Double-blind, auto-control and mutual control design. The influence of the two medicines on arterial blood flow rate of cavernosum was contrasted, Based on ages, the objects were randonmly divided into 4 groups, and there were 11-12 people in one group. Before administration, arterial blood flow of corpus cavernosum penis was estimated respectively by Doppler color ultrasound instrument (Acuson, American, 128×p/10 c),and blood pressure was also measured. Then 2 groups were respectively given high dosage Medicine, that is, 8 capsules product mainly consisting of bombyx moriL and 8 capsules of viagra, and the dose-effect relationship was observed. Blood pressure and cavernous arterial blood flow of every group were estimated respectively at I and 2 hours after administration, and the time-effect relationship of product mainly consisting of bombyx moriL and viagra was observed. Whether the alternation before and after administration and the difference between groups were significant was convinced here.

normal males [5] = assay: Blood pressure of normal males; type: in vivo; settings: for Systolic Pressure, change 1 h after administration, X ± SD: P < 0.01
Description: as §2, §3

[6] = Viagra 25 mg, n=11, before administration 1.09 ± 0.30
[7] = Viagra 25 mg, n=11, before administration 3.24 ± 1.02
[8] = Viagra 50 mg, n=12, before administration 1.25 ± 0.62
[9] = Viagra 50 mg, n=12, before administration 3.37 ± 0.79
[10] = Viagra 25 mg, n=11, before administration 81.8 ± 6.4
[11] = Viagra 25 mg, n=11, before administration 120.5 ± 10.6
[12] = Viagra 50 mg, n=12, before administration 78.6 ± 10.7
[13] = Viagra 50 mg, n=12, before administration 117.7 ± 9.8

CCCc1nn(C)c2c(=O)[nH]c(-c3cc(S(=O)(=O)N4CCN(C)CC4)ccc3OCC)nc12 [Viagra, Sildenafil citrate]
isoenzyme band II area under peak, Peak Area X ± SD ([1]; Viagra 6 mg/kg): 0.249 ± 0.126 | isoenzyme band II area under peak, Peak Area X ± SD ([1]; Viagra 12 mg/kg): 0.198 ± 0.092 | cGMP content in plasma, X ± SD (cGMP [2]; Viagra 6 mg/kg): 4.53 ± 0.67 pmol/mL | cGMP content in plasma, X ± SD (cGMP [2]; Viagra 12 mg/kg): 4.42 ± 0.97 pmol/mL | cGMP content in cavernous body, X ± SD (cGMP [3]; Viagra 6 mg/kg, P < 0.1 vs control (0.25 ± 0.05)): 0.40 ± 0.26 pmol/mL | cGMP content in cavernous body, X ± SD (cGMP [3]; Viagra 12 mg/kg, P < 0.001 vs control (0.25 ± 0.05)): 0.53 ± 0.12 pmol/mL | NO contents X ± SD, corpora cavernosa (nitric oxide (NO); Viagra high 12 mg/kg, P < 0.05 vs negative control (29.2 ± 5.37)): 48.52 ± 17.95 µmol/L | NO contents X ± SD, corpora cavernosa (nitric oxide (NO); Viagra low 6 mg/kg, P < 0.01 vs negative control (29.2 ± 5.37)): 44.88 ± 9.47 µmol/L | MIN blood flow rate, change 1 h after administration, X ± SD (normal males [4]; [6]): +0.27 ± 1.01 cm/s | MIN blood flow rate, change 2 h after administration, X ± SD (normal males [4]; [6]): +0.36 ± 0.81 cm/s | TAMX blood flow rate, change 2 h after administration, X ± SD (normal males [4]; Viagra 25 mg, n=11, before administration 2.64 ± 1.12): 0.18 ± 1.17 cm/s | TAMX blood flow rate, change 1 h after administration, X ± SD (normal males [4]; Viagra 25 mg, n=11, before administration 2.64 ± 1.12, P < 0.05): +1.36 ± 1.43 cm/s | PI (pulsation index), change 1 h after administration, X ± SD (normal males [4]; [7]): −0.19 ± 1.16 | PI (pulsation index), change 2 h after administration, X ± SD (normal males [4]; [7]): +0.10 ± 0.85 | MAX blood flow rate, change 1 h after administration, X ± SD (normal males [4]; Viagra 25 mg, n=11, before administration 9.55 ± 2.58): +4.36 ± 2.98 cm/s | MIN blood flow rate, change 1 h after administration, X ± SD (normal males [4]; [8]): +0.17 ± 0.72 cm/s | MIN blood flow rate, change 2 h after administration, X ± SD (normal males [4]; [8]): +0.17 ± 0.91 cm/s | TAMX blood flow rate, change 2 h after administration, X ± SD (normal males [4]; Viagra 50 mg, n=12, before administration 2.67 ± 0.78): 0.50 ± 0.80 cm/s | TAMX blood flow rate, change 1 h after administration, X ± SD (normal males [4]; Viagra 50 mg, n=12, before administration 2.67 ± 0.78, P < 0.01): +1.43 ± 1.27 cm/s | PI (pulsation index), change 1 h after administration, X ± SD (normal males [4]; [9]): +0.24 ± 0.84 | PI (pulsation index), change 2 h after administration, X ± SD (normal males [4]; [9]): −0.33 ± 0.72 | MAX blood flow rate, change 1 h after administration, X ± SD (normal males [4]; Viagra 50 mg, n=12, before administration 9.58 ± 1.08): +5.67 ± 4.31 cm/s | MAX blood flow rate, change 2 h after administration, X ± SD (normal males [4]; Viagra 50 mg, n=12, before administration 9.58 ± 1.08, P < 0.05): +1.75 ± 2.63 cm/s | increasement of MAX (cavernous arterial maximal blood flow rate) (normal males [4]; high dosage groups): 59.2% | increasing rate of TAMX (cavernous average blood flow rate) (normal males [4]; low and high dosage groups, 1 hour after administration, P<0.01): 51.5-53.6% | increasement of MAX (cavernous arterial maximal blood flow rate) (normal males [4]; low dosage groups): 46.6% | rate of hypotensive function (normal males [5]; "High dosage" as printed, remarkable only at 1 hour after administration): 8.3% | Diastolic Pressure, change 1 h after administration, X ± SD (normal males [5]; [10]): −2.7 ± 4.7 mmHg | Diastolic Pressure, change 2 h after administration, X ± SD (normal males [5]; [10]): −1.8 ± 4.6 mmHg | Systolic Pressure, change 2 h after administration, X ± SD (normal males [5]; [11]): −3.5 ± 6.2 mmHg | Systolic Pressure, change 1 h after administration, X ± SD (normal males [5]; [11]): −10.0 ± 6.3 mmHg | Diastolic Pressure, change 1 h after administration, X ± SD (normal males [5]; [12]): −3.4 ± 7.2 mmHg | Diastolic Pressure, change 2 h after administration, X ± SD (normal males [5]; [12]): −2.0 ± 6.4 mmHg | Systolic Pressure, change 2 h after administration, X ± SD (normal males [5]; [13]): −2.7 ± 5.6 mmHg | Systolic Pressure, change 1 h after administration, X ± SD (normal males [5]; [13]): −7.3 ± 6.1 mmHg | decreasing rate of systolic pressure (sp) (normal males [5]; high dosage, 1 h after administration, p<0.01): 6.2%
